For data set [1], the target named is T1, heparinase II (Pedobacter heparinus, UniProt C6XZB6).
T1 sequence (C6XZB6 26-772): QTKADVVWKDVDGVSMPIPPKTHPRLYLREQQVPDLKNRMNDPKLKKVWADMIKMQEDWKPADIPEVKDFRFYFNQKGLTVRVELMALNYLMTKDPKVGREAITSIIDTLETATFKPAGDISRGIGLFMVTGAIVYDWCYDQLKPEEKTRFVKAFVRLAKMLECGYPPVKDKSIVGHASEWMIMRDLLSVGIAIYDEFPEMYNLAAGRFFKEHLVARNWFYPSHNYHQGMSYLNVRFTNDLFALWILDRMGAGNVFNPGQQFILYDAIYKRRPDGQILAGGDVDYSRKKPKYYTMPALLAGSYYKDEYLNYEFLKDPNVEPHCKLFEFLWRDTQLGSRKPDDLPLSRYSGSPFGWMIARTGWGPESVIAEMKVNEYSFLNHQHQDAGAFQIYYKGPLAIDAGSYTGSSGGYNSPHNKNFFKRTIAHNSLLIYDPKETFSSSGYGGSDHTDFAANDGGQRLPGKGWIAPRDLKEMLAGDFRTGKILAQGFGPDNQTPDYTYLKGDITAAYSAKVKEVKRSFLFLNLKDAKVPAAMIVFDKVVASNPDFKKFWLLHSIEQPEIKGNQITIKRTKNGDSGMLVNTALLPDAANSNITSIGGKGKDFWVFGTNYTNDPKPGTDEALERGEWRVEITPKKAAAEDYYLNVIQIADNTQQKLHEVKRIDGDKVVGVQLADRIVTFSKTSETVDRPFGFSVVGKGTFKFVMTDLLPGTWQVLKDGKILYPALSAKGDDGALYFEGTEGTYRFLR
Description: DEPC inactivation of heparinase II and reactivation with hydroxylamine. The class given is biochemical, Flavobacterium heparinum. The following applies: for kinact/KI: read-out: second-order rate constant of inactivation (converted); for initial activity recovered by DEPC-modified enzyme: 500 mM hydroxylamine.

Data set [2] has as its target T1, heparinase II. In words: pCMB modification and inactivation of heparinase II. Format: biochemical, Flavobacterium heparinum. From the text:
(§1) Heparinase II Activity Assay. Native heparinase II from Flavobacterium heparinum, was purified as described previously (Godavarti, R., and Sasisekharan, R (1996c) Biochem. Biophys. Res. Comm. 229, 770-777). The UV 232 nm assay to quantify native heparinase II enzymatic activity was similar to that reported for heparinase I (Bernstein, H., Yang, V. C., Cooney, C. L., Langer, R. (1988) Meth. Enzym. 137, 515-29). Briefly, the course of the reaction is monitored by measuring the increase in absorbance at 232 nm as a function of time under saturating substrate concentrations. With heparin as the substrate, the reaction was carried out at a concentration of 4 mg/ml in 50 mM sodium phosphate buffer, pH 7.3. With 2 mg/ml heparan sulfate, the reaction was measured in 50 mM sodium phosphate buffer, pH 6.9 (Sasisekharan, R., Moses, M. A., Nugent, M. A., Cooney, C. L., Langer, R. (1994) Proc. Natl. Acad. Sci., USA 91, 1524-1528). The temperature for all enzymatic activity measurements was kept constant at 35° C.
pCMB Modification Studies. […]. A control reaction mixture containing vehicle alone was run in tandem. At fixed time intervals, aliquots were withdrawn for the UV 232 nm enzyme activity assay.
(B) Reactivation of pCMB—modified heparinase II with DTT. Heparinase II (50 μg/ml) was incubated with 5 μM pCMB for 4 minutes and an aliquot was withdrawn to determine the fractional activity retained. DTT (10 mM) was then immediately added to the reaction mixture and to the control, which contained no pCMB. The mixtures were incubated at 4° C. Heparinase II activity was measured every half hour.
(C) Effect of salt on the inactivation of heparinase II by pCMB. Heparinase II was incubated with 5 μM pCMB in 50 mM sodium phosphate buffer, pH 7.0, with different salt concentrations (30, 60, 110, 180, 300, and 500 mM NaCl). A control mixture, which contained no additional salt, was also incubated with pCMB.
(D) Substrate protection of heparinase II against pCMB modification. Heparinase II (50 μg/ml) was preincubated with either 4 mg/ml heparin or 2 mg/ml heparan sulfate for 30 minutes prior to the addition of 5 μM pCMB and then the time course of inactivation was determined with the heparinase II activity assay.
(E) Quantification of pCMB—modified residues of heparinase II. Quantification of pCMB-modified residues of heparinase II was determined by difference spectra. […] The change in absorbance at 250 nm was monitored every 30 seconds for 10 minutes. The number of modified residues was determined using ∈=7,600 M^−1 cm^−1 (Boyer, P. D. (1952) J. Am. Chem. Soc. 76, 4331-4337). Heparinase II activity assays were completed under identical conditions with heparin as the substrate.
[…]. Less than 2% of total heparinase II enzymatic activity remained after this time interval. […]. Modified heparinase II was separated and concentrated. pCMB was removed via addition of DTT. [^3H]NEM was added to the reaction mixture; unreacted tritium was separated by RPHPLC and heparinase II was digested with Lys-C.

Data set [3] can be described thus: Heparinase I UV 232 nm activity assay as a function of heparin concentration (Kcat, Km). The class given is biochemical, porcine. The following applies: for Kcat / Km: heparin 0 to 4 mg/ml, 5 mM calcium acetate, pH 7.0; for Kcat: 100 mM MOPS.
From the text: as §1
Heparinase I Activity Assay. The UV 232 nm assay to quantify heparinase I enzymatic activity was similar to that described in Example 1. With heparin as the substrate, the reaction was carried out at a concentration of 4 mg/ml in 100 mM MOPS, 5 mM calcium acetate, pH 7.0. The temperature for all enzymatic activity measurements was kept constant at 30° C. For the inactivation kinetic profiles, activity was measured as outlined above at precise time points.
(§2) Heparinase I Activity Assays: The UV 232 nm assay was used as described in Example 1. When measuring the enzyme activity as a function of heparin concentration, heparin concentrations varied from 0 to 4 mg/ml at a fixed calcium concentration of 5 mM (100 mM MOPS buffer/5 mM calcium acetate, pH 7.0). The data was then fit to an non-linear equation to determine Kcat and Km of heparinases I. Heparinase mutant activity was also investigated as a function of calcium concentration ranging from 0 to 10 mM. […] Activity is expressed as IU-μmol product formed/min using ∈=−3800-M^−1CM^−1.

A short description of data set [4]: Heparinase I activity as a function of calcium concentration (K0.5, calcium dependence). Format: biochemical. How it is done:
as §2

The nature of data set [5]: Heparin-POROS affinity chromatography. Format: binding. The note with it: salt concentration at which enzyme elutes from heparin-POROS column; 10 mM Tris, 1 mM EDTA pH 7.0. How it is done:
Heparin-POROS chromatography: About 30-40 μg of -L r-heparinase I and the various mutant enzymes were injected into a heparin POROS (4.6 mm×100) column (PerSeptive BioSystems, Framingham, Mass.) connected to BioCAD system (PerSeptive BioSystems). Proteins were eluted using a linear gradient of […] NaCl in 10 min (10 mM Tris, 1 mM EDTA pH 7.0) and monitored at 210 nm. EDTA was added to chelate any calcium ions that may be present in the buffers.

Data set [6] can be described thus: Fluorescence competition for calcium with probe rhod-5N. The note with it: apparent dissociation constant of rhod-5N for calcium with 3 μM enzyme; lower Kd′ means less binding of calcium by heparinase I. As for the experimental part: Fluorescence Competition. To determine the effect of mutations in CB-1 and CB-2 on the ability of heparinase I to bind calcium, mutants with a dramatic drop in activity were tested for their ability to bind calcium. To accomplish this, we examined the ability of heparinase I and mutants to compete for free calcium with the calcium-chelating fluorescence probe rhod-5N. The fluorescence probe rhod-5N was dissolved and diluted in buffer A (10 mM MOPS and 100 mM KCl, pH 6.5). Buffer A and the water used in the study were run through a Chelex Resin column to remove trace amounts of calcium. In the absence of calcium, rhod-5N is not fluorescent, however upon binding calcium rhod-5N is fluorescent with an emission λmax of 576 nm. Before titration, rhod-5N and heparinase I were added to a quartz cuvette such that the final concentration of rhod-5N in the cuvette was 0.3 μM and heparinase I is 3 μM. To this solution was added aliquots of a calcium solution (20 mM) which had been previously equilibrated with 0.3 μM rhod-5N and 3 μM heparinase I. The stock was added such that the calcium concentration in the cuvette was 50, 100, 200, 500, 1000, 5000 μM. After allowing the solution to come to equilibrium, the sample was scanned from 560 nm to 600 nm with the excitation wavelength fixed at […]. The plot of I/Imax versus [Ca^++] was fitted to a non-linear equation to determine the apparent Kd (Kd′) value. Thus, Kd′ values represent the apparent dissociation constants for the fluorescence probe rhod-5N. Control samples without heparinase I were included in the study.

The mark [7] stands for this setting: calcium concentration at which half of the maximum enzyme activity was observed, calcium 0 to 10 mM, Table 4 first K0.5 column.

Positions count from the first letter of the chain named. Names and notes keep the numbering of the source. Where two headings read alike, the source gives them in different places. Some results are limits rather than exact numbers.

Turning to `CCOC(=O)OC(=O)OCC` [DEPC, diethylpyrocarbonate], the “loss of heparinase II enzymatic activity” value at heparinase II [1] (2 mM DEPC, 10 minutes, towards heparin and heparan sulfate) worked out at 90%. On heparinase II [1] (2 mM DEPC, ten minutes, pH 7.0), the “number of histidines modified” value is “roughly three”. In addition, the results for the kinact/KI on heparinase II [1] (heparan sulfate as the substrate) and on heparinase II [1] (heparin as the substrate) were 4 M⁻¹ s⁻¹ and 2.67 M⁻¹ s⁻¹, respectively.

As for `NO` [Hydroxylamine], the “initial activity recovered by DEPC-modified enzyme” value is on record as “about 90%” on heparinase II [1] (8 hours, pH 7.0) and “about 80%” on heparinase II [1] (approximately 1.5 hours, pH 7.0, after inactivation to 50%). Moreover, on heparinase II [1] (pH 8), the “activity restored after DEPC modification” value is reported as “over 70%”.

On to `O=C(O)c1cc[c]([Hg][Cl])cc1` [pCMB, p(chloromercuri)benzoate], for which the “time to complete inactivation of heparinase II” value on heparinase II [2] (10 μM) was no more than 15 min. This molecule came in with a loss of activity on heparinase II [2] (20 μM pCMB) of 98%. For the same molecule, the “number of cysteines modified” value at heparinase II [2] (20 μM pCMB) is on record as 1.06 cysteines. Also, the “first-order rate constant of inactivation” value at heparinase II [2] (500 mM salt) is 0.06 min⁻¹. Moreover, the “drop of first order rate constant of inactivation” value on heparinase II [2] (between 0 and 100 mM NaCl, 5 μM pCMB) came out at 2 fold. Further, the “decrease of first order rate constant of inactivation” value at heparinase II [2] (between 0 and 300 mM NaCl, 5 μM pCMB) is reported as “more than 4 fold”. Moreover, the “k, first-order rate constant of inactivation” value at heparinase II [2] (pH 5.0) was determined as 0.16 min⁻¹; at heparinase II [2] (pH 6.0), 0.14 min⁻¹; on heparinase II [2] (pH 7.0) it was 0.21 min⁻¹; at heparinase II [2] (pH 8.0), 0.24 min⁻¹. In addition, on heparinase II [2] (pH 7.0, 4° C.), the “second-order rate constant for the inactivation” value was determined as 667 M⁻¹ s⁻¹. On heparinase II [2] (stoichiometric amount of pCMB, 15 minutes), the “total heparinase II enzymatic activity remaining” value is reported as “Less than 2%”. Besides, the “pCMB inactivation (Table 1 value)” value is 0.09 on heparinase II [2] (substrate heparan sulfate, protection reagent heparan sulfate); 0.16 at heparinase II [2] (substrate heparan sulfate, protection reagent heparin); 0.21 on heparinase II [2] (substrate heparan sulfate, protection reagent none); 0.10 on heparinase II [2] (substrate heparin, protection reagent heparan sulfate); 0.16 on heparinase II [2] (substrate heparin, protection reagent heparin); 0.22 on heparinase II [2] (substrate heparin, protection reagent none, 5 μM pCMB).

B1: D212A/G213A/T216A: heparinase I CB-1 triple mutant (protein, UniProt Q05819 22-384, looked up, variant D212A G213A T216A)
Heparin lyase I: QQKKSGNIPYRVNVQADSAKQKAIIDNKWVAVGINKPYALQYDDKLRFNGKPSYRFELKAEDNSLEGYAAGETKGRTELSYSYATTNDFKKFPPSVYQNAQKLKTVYHYGKGICEQGSSRSYTFSVYIPSSFPDNATTIFAQWHGAPSRTLVATPEGEIKTLSIEEFLALYDRMIFKKNIAHDKVEKKDKAAKIAYVAGKPNGWKVEQGGYPTLAFGFSKGYFYIKANSDRQWLTDKADRNNANPENSEVMKPYSSEYKTSTIAYKMPFAQFPKDCWITFDVAIDWTKYGKEANTILKPGKLDVMMTYTKNKKPQKAHIVNQQEILIGRNDDDGYYFKFGIYRVGNSTVPVTYNLSGYSETAR
What is called Km is the substrate concentration at which the rate is half of its maximum. Take B1: in data set [3], the “decrease in Kcat compared to wild-type r-heparinase I” value was roughly 5 fold, the Kcat came out at 20 s⁻¹ and the Michaelis constant (Km) was found to be 3.16 µM. For the same molecule, the K0.5 in data set [4] (Table 4 second K0.5 column) is 730 µM. In addition, the K0.5 in data set [4] (setting [7]) is 730 µM. Further, the NaCl in data set [5] was 495 mM. Further, the Kd in data set [6] came to 116 µM.

B2: E381A/T382A: heparinase I CB-2 double mutant (protein, UniProt Q05819 22-384, looked up, variant E381A T382A)
Heparin lyase I: B1 Heparin lyase I with A191D, A192G, A195T, E360A, T361A
Take B2: the Kcat in data set [3] is 10 s⁻¹. In addition, the Km in data set [3] was 1.75 µM. Also, the K0.5 in data set [4] (Table 4 second K0.5 column) and in data set [4] (setting [7]) was 180 µM each time. The NaCl in data set [5] is 505 mM.

For the origin of these results see US7560106B2, “Rationally designed heparinases derived from heparinase I and II and methods of sequencing therewith” (Massachusetts Institute of Technology, priority 1998, dated 2009).
